{"source": "patent US9476099B2", "about": "(TRUSTEES OF DARTMOUTH COLLEGE, priority 2012, dated 2016)", "tested_on": "NT2/D1-R1 control and DNMT3B knockdown cells", "experiment": "Genome-wide expression analysis with PAM clusters, control and DNMT3B knockdown cells (Tables 8-14)", "conditions": "sh-Ctrl + aza", "key": {"[1]": {"conditions": "NT2/D1-R1, decitabine 10 nM 3 days"}}, "note": "Values joined by “and” are separate entries in the source; they are usually repeats but may differ in a detail not shown here. Identical values can stand only once."}
{"smiles": "Nc1ncn([C@H]2C[C@H](O)[C@@H](CO)O2)c(=O)n1", "note": "[aza]", "values": [{"measurement": "LOC644422 XR_019449 expression Mean", "setting": "10 nM decitabine, 3 days", "value": 332.598}, {"measurement": "LOC647954 XR_018676 expression Mean", "setting": "10 nM decitabine, 3 days", "value": 1348.27}, {"measurement": "LOC728715 XM_0011282 expression Mean", "setting": "10 nM decitabine, 3 days", "value": 1760.28}, {"measurement": "M6PRBP1 NM_005817 expression Mean", "setting": "10 nM decitabine, 3 days", "value": 2017.94}, {"measurement": "MBNL3 NM_133486 expression Mean", "setting": "10 nM decitabine, 3 days", "value": 338.893}, {"measurement": "MCM4 NM_005914 expression Mean", "setting": "10 nM decitabine, 3 days", "value": 2945.56}, {"measurement": "MEPCE NM_019606 expression Mean", "setting": "10 nM decitabine, 3 days", "value": 786.84}, {"measurement": "METTL1 NM_005371 expression Mean", "setting": "10 nM decitabine, 3 days", "value": 412.423}, {"measurement": "MORF4L2 NM_012286 expression Mean", "setting": "10 nM decitabine, 3 days", "value": 1621.68}, {"measurement": "MRTO4 NM_016183 expression Mean", "setting": "10 nM decitabine, 3 days", "value": 893.853}, {"measurement": "MT1E NM_175617 expression Mean", "setting": "10 nM decitabine, 3 days", "value": 2437.55}, {"measurement": "MTA2 NM_004739 expression Mean", "setting": "10 nM decitabine, 3 days", "value": 453.486}, {"measurement": "MYOF NM_013451 expression Mean", "setting": "10 nM decitabine, 3 days", "value": 302.746}, {"measurement": "MYOF NM_133337 expression Mean", "setting": "10 nM decitabine, 3 days", "value": 612.957}, {"measurement": "NACC2 NM_144653 expression Mean", "setting": "10 nM decitabine, 3 days", "value": 566.307}, {"measurement": "NAT5 NM_181528 expression Mean", "setting": "10 nM decitabine, 3 days", "value": 1401.34}, {"measurement": "NBPF10 NM_0010376 expression Mean", "setting": "10 nM decitabine, 3 days", "value": 816.642}, {"measurement": "NBPF10 NM_0010397 expression Mean", "setting": "10 nM decitabine, 3 days", "value": 557.142}, {"measurement": "NEFH NM_021076 expression Mean", "setting": "10 nM decitabine, 3 days", "value": 538.551}, {"measurement": "NFE2 NM_006163 expression Mean", "setting": "10 nM decitabine, 3 days", "value": 459.796}, {"measurement": "NM_002467 expression Mean", "setting": "10 nM decitabine, 3 days", "value": 896.83}, {"measurement": "NM_0010397 expression Mean", "setting": "10 nM decitabine, 3 days", "value": 736.286}, {"measurement": "NM_138781 expression Mean", "setting": "10 nM decitabine, 3 days", "value": 484.429}, {"measurement": "NODAL NM_018055 expression Mean", "setting": "10 nM decitabine, 3 days", "value": 954.925}, {"measurement": "NOP2 NM_0010337 expression Mean", "setting": "10 nM decitabine, 3 days", "value": 7589.18}, {"measurement": "NOP56 NM_006392 expression Mean", "setting": "10 nM decitabine, 3 days", "value": 1764.44}, {"measurement": "NP NM_000270 expression Mean", "setting": "10 nM decitabine, 3 days", "value": 475.426}, {"measurement": "NR_002773 expression Mean", "setting": "10 nM decitabine, 3 days", "value": 596.315}, {"measurement": "NR_003287 expression Mean", "setting": "10 nM decitabine, 3 days", "value": 634.816}, {"measurement": "NTF3 NM_002527 expression Mean", "setting": "10 nM decitabine, 3 days", "value": 286.374}, {"measurement": "NTS NM_006183 expression Mean", "setting": "10 nM decitabine, 3 days", "value": 641.496}, {"measurement": "NUAK2 NM_030952 expression Mean", "setting": "10 nM decitabine, 3 days", "value": "309.88 and 403.382"}, {"measurement": "OAT NM_000274 expression Mean", "setting": "10 nM decitabine, 3 days", "value": 2902.41}, {"measurement": "ODC1 NM_002539 expression Mean", "setting": "10 nM decitabine, 3 days", "value": 3243.03}, {"measurement": "PAK1IP1 NM_017906 expression Mean", "setting": "10 nM decitabine, 3 days", "value": 644.744}, {"measurement": "PEA15 NM_003768 expression Mean", "setting": "10 nM decitabine, 3 days", "value": 2263.16}, {"measurement": "PEG3 NM_006210 expression Mean", "setting": "10 nM decitabine, 3 days", "value": 442.766}, {"measurement": "PITX1 NM_002653 expression Mean", "setting": "10 nM decitabine, 3 days", "value": 947.042}, {"measurement": "PLAU NM_002658 expression Mean", "setting": "10 nM decitabine, 3 days", "value": 1093.87}, {"measurement": "PLEKHF1 NM_024310 expression Mean", "setting": "10 nM decitabine, 3 days", "value": 716.406}, {"measurement": "POLR1C NM_203290 expression Mean", "setting": "10 nM decitabine, 3 days", "value": "533.492 and 971.221"}, {"measurement": "PPA2 NM_006903 expression Mean", "setting": "10 nM decitabine, 3 days", "value": 1058.5}, {"measurement": "PPAN NM_002566 expression Mean", "setting": "10 nM decitabine, 3 days", "value": 615.062}, {"measurement": "RBM22 NM_018047 expression Mean", "setting": "10 nM decitabine, 3 days", "value": 921.101}, {"measurement": "RNMTL1 NM_018146 expression Mean", "setting": "10 nM decitabine, 3 days", "value": 708.14}, {"measurement": "RPL6 NM_0010246 expression Mean", "setting": "10 nM decitabine, 3 days", "value": 1189.55}, {"measurement": "RRM2 NM_001034 expression Mean", "setting": "10 nM decitabine, 3 days", "value": 697.476}, {"measurement": "RSL1D1 NM_015659 expression Mean", "setting": "10 nM decitabine, 3 days", "value": 1413.6}, {"measurement": "RUNX3 NM_004350 expression Mean", "setting": "10 nM decitabine, 3 days", "value": 484.199}, {"measurement": "SERPINE1 NM_000602 expression Mean", "setting": "10 nM decitabine, 3 days", "value": 539.652}, {"measurement": "SERTAD1 NM_013376 expression Mean", "setting": "10 nM decitabine, 3 days", "value": 534.101}, {"measurement": "SFXN4 NM_213649 expression Mean", "setting": "10 nM decitabine, 3 days", "value": 724.081}, {"measurement": "SIDT2 NM_0010404 expression Mean", "setting": "10 nM decitabine, 3 days", "value": 528.693}, {"measurement": "SLC20A1 NM_005415 expression Mean", "setting": "10 nM decitabine, 3 days", "value": 1468.1}, {"measurement": "SNAPC4 NM_003086 expression Mean", "setting": "10 nM decitabine, 3 days", "value": 1200.9}, {"measurement": "SOCS2 NM_003877 expression Mean", "setting": "10 nM decitabine, 3 days", "value": "288.614 and 566.518"}, {"measurement": "SOX15 NM_006942 expression Mean", "setting": "10 nM decitabine, 3 days", "value": 2791.76}, {"measurement": "SPANXD NM_145665 expression Mean", "setting": "10 nM decitabine, 3 days", "value": 210.19}, {"measurement": "SPRYD5 NM_032681 expression Mean", "setting": "10 nM decitabine, 3 days", "value": 519.493}, {"measurement": "SQSTM1 NM_003900 expression Mean", "setting": "10 nM decitabine, 3 days", "value": 2145.19}, {"measurement": "SRRT NM_015908 expression Mean", "setting": "10 nM decitabine, 3 days", "value": 4196.33}, {"measurement": "SUSD2 NM_019601 expression Mean", "setting": "10 nM decitabine, 3 days", "value": 2570.13}, {"measurement": "TAGLN NM_003186 expression Mean", "setting": "10 nM decitabine, 3 days", "value": 1178.17}, {"measurement": "TNFRSF12A NM_016639 expression Mean", "setting": "10 nM decitabine, 3 days", "value": 519.778}, {"measurement": "TNFRSF13B NM_012452 expression Mean", "setting": "10 nM decitabine, 3 days", "value": 179.31}, {"measurement": "TNPO1 NM_153188 expression Mean", "setting": "10 nM decitabine, 3 days", "value": 439.283}, {"measurement": "TPRG1L NM_182752 expression Mean", "setting": "10 nM decitabine, 3 days", "value": 1513.68}, {"measurement": "TRIM8 NM_030912 expression Mean", "setting": "10 nM decitabine, 3 days", "value": 922.659}, {"measurement": "TTC4 NM_004623 expression Mean", "setting": "10 nM decitabine, 3 days", "value": 1457.62}, {"measurement": "UTP14A NM_006649 expression Mean", "setting": "10 nM decitabine, 3 days", "value": 555.285}, {"measurement": "WBSCR22 NM_017528 expression Mean", "setting": "10 nM decitabine, 3 days", "value": 1107.76}, {"measurement": "XM_0011261 expression Mean", "setting": "10 nM decitabine, 3 days", "value": 718.505}, {"measurement": "XM_0011281 expression Mean", "setting": "10 nM decitabine, 3 days", "value": 2231.09}, {"measurement": "XR_015970 expression Mean", "setting": "10 nM decitabine, 3 days", "value": 1080.49}, {"measurement": "XR_016703 expression Mean", "setting": "10 nM decitabine, 3 days", "value": 6659.76}, {"measurement": "XR_017241 expression Mean", "setting": "10 nM decitabine, 3 days", "value": 10363}, {"measurement": "XR_017543 expression Mean", "setting": "10 nM decitabine, 3 days", "value": 832.234}, {"measurement": "ZDHHC6 NM_022494 expression Mean", "setting": "10 nM decitabine, 3 days", "value": 528.208}, {"measurement": "ZHX2 NM_014943 expression Mean", "setting": "10 nM decitabine, 3 days", "value": 479.456}, {"measurement": "A4GALT (NM_017436) gene expression, Mean", "setting": "[1]", "value": 174.249}, {"measurement": "ABR (NM_001092) gene expression, Mean", "setting": "[1]", "value": 424.634}, {"measurement": "ACACA (NM_198836) gene expression, Mean", "setting": "[1]", "value": 443.13}]}
